In publication PMC9054546, “Synthesis and molecular modeling studies of cholinesterase inhibitor dispiro[indoline-3,2′-pyrrolidine-3′,3′′-pyrrolidines]” (RSC Advances, 2020):
Where “and” joins values, the source holds several entries; their conditions need not be identical. Identical values can stand only once. Like-named read-outs stand apart in the source and are kept apart here.

Tests used:
AChE [1] = target: T1, AChE (Homo sapiens, UniProt P22303); assay: biochemical; conditions: for SI(AChE/BChE): selectivity index = IC50 (AChE)/IC50 (BChE)
T1 sequence (P22303 32-614): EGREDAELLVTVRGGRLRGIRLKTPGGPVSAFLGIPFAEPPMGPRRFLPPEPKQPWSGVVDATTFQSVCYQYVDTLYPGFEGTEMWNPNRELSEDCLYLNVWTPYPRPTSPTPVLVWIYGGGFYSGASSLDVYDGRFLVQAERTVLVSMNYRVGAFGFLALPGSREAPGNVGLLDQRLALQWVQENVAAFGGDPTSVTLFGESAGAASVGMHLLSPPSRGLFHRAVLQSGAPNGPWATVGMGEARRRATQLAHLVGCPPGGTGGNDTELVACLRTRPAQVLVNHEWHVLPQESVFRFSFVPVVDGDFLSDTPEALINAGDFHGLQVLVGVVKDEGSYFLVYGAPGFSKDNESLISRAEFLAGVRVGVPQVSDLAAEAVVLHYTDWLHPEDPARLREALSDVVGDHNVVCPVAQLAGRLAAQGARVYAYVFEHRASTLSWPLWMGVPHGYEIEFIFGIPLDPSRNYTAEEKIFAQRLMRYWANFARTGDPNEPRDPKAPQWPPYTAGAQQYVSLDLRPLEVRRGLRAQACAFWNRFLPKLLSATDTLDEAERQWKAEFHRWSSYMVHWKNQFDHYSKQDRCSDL
Description: (§1) Butyrylthiocholine iodide and acetylthiocholine were utilized as substrates in BChE and AChE assays, respectively, where DTNB was served as indicator. All compounds were dissolved in MeOH. […] Blank assays were performed by replacing the enzyme (20 μL) with buffer and their absorbances were recorded for correction of the spontaneous lysis of the indicator or inherent color of the inhibitor.
Selectivity index (SI) for acetyl and butyryl cholinesterases was calculated as follow:SI(AChE/BChE) = IC50 (AChE)/IC50 (BChE)SI(BChE/AChE) = […]

BChE [2] = target: T2, BChE (Homo sapiens, UniProt P06276); assay: biochemical; conditions: for SI(BChE/AChE): selectivity index BChE/AChE
T2 sequence (P06276 29-602): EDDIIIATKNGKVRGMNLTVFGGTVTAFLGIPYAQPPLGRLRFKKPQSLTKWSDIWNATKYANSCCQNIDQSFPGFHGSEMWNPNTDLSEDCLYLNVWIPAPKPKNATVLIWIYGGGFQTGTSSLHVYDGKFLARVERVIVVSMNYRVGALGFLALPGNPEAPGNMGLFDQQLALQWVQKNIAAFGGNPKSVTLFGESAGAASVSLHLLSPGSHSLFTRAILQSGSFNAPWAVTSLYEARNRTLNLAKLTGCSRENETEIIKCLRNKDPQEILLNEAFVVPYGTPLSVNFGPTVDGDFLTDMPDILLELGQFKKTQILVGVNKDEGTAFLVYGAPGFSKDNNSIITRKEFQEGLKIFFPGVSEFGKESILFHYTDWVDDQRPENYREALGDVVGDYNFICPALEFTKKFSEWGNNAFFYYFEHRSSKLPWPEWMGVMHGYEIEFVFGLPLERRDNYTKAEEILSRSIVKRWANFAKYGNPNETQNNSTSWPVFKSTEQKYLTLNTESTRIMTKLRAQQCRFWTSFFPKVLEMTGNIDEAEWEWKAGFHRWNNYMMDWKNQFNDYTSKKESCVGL
Description: as §1, with “inhibitor. […]” for “inhibitor.”

[3] = tested on: RPE1 (human immortalized retinal pigment epithelial cell line); assay: Antiproliferative/cytotoxicity MTT assay on normal cell line; format: cell-based; conditions: RPE-1, 72 h incubation, tested at 100, 50, 25 and 12.5 μM, read-out: IC50 against RPE1
From the text: Antiproliferative properties of the synthesized agents 8a–l were considered against RPE1 (human immortalized retinal pigment epithelial cell line) normal cell line utilizing the standard MTT (tetrazolium salt) technique.[37]
The synthesized agents 8a–l were screened against RPE1 (human immortalized retinal pigment epithelial cell line) normal cell line to investigate their cytotoxicity by the standard mitochondrial dependent reduction of yellow MTT [3-(4,5-dimethylthiazol-2-yl)-2,5-diphenyl-tetrazolium bromide] to purple formazan technique.[37] Cells were suspended in DMEM in addition to 1% antibiotic–antimycotic mixture (10 000 μg mL^−1 potassium penicillin, 10 000 μg mL^−1 streptomycin sulfate and 25 μg mL^−1 amphotericin B), 10% fetal bovine serum and 1% L-glutamine at 37 °C, under 5% CO2 and 95% humidity. Cells were seeded at concentration of 30 000 cells per well in fresh complete growth medium in 96-well tissue culture microtiter plates for 24 h. […] 0.5% DMSO was used as negative control. Triplicate wells were prepared for each individual dose. After 72 h of incubation, medium was aspirated, 40 μl MTT salt (2.5 mg mL^−1) were added to each well and incubated for further 4 h at 37 °C. To stop the reaction and dissolve the formed crystals, 150 μL of 10% sodium dodecyl sulfate (SDS) in deionized water were added to each well and incubated overnight at 37 °C.
Data were collected as mean values for experiments performed in triplicates for each individual dose which had been measured by MTT assay. […] The percentage of cell survival was calculated according to the following equation. [drawing 1]
Statistical calculations for determination of the mean and standard error values were determined by SPSS 16 software.

mice = assay: Acute toxicological bio-assay in mice; format: in vivo; conditions: intraperitoneal, 50, 100 and 250 mg kg−1, recorded 24 h post-administration
Description: Albino mice weighing 20–25 g were divided into 4 groups of 6 mice each. Administrations of the tested compounds dissolved in saline solution (0.9%) by the aid of few drops of Tween 80 were given intraperitoneally in 50, 100 and 250 mg kg^−1 (mice body weight). The control group was given a saline solution only with few drops of Tween 80. The toxic symptoms and mortality rates were recorded 24 h post-administration in each group.

AChE [4] = target: T1, AChE; assay: 2D-QSAR (BMLR, CODESSA-Pro) model, AChE inhibitors; conditions: observed minus estimated IC50
From the text: (§2) The cholinesterase properties observed were undertaken by CODESSA-Pro software accessible for optimizing 2D-QSAR models.[39–41] This is useful for well understanding the bio-observations and identifying the parameters necessary for bio-potency. Three descriptor QSAR models were developed due to the AChE and BChE inhibitory properties of the synthesized dispiro-compounds 8a–l (ESI Tables S4–S9, Fig. S40 and S41, details of the QSAR descriptors are also mentioned in the ESI). ^† […]
(§3) Goodness of the QSAR models was supported by the comparative values of the correlation coefficient (R^2) with their cross validation of leave one-out (R^2cvOO) and leave many-out (R^2cvMO) [R^2 = 0.923, 0.979; R^2cvOO = 0.882, 0.936; R^2cvMO = 0.904, 0.956, for AChE and BChE models, respectively]. Standard deviation (s^2) and Fisher criteria (F) values of the models also support their goodness (s^2 = 0.026, 0.005; […]. Additionally, the correlations of the observed and predicted values “specially the high potent synthesized compounds” add good support for the attained models. […]
(§4) Molecular modeling studies
(§5) The synthesized dispiro[indoline-3,2'-pyrrolidine-3',3''-pyrrolidines] 8a‒l […]
(§6) 2D-QSAR modeling by CODESSA-Pro (comprehensive descriptors for structural and statistical analysis) software. Geometry of the compounds was initially optimized by AM1 technique using hyperChem 8.0 then, uploaded to CODESSA-Pro for final geometrical structure optimization by MOPAC.10‒12 CODESSA-Pro calculated 656 molecular descriptors (constitutional, topological, geometrical, charge-related, semi-empirical, thermodynamical, molecular-type, atomic-type and bond-type descriptors) for […]
(§7) the exported bio-active agents. Mathematical transformation of the experimental values […]
(§8) QSAR model. The best multi-linear regression (BMLR) technique was utilized which is a stepwise search for the best n-parameter regression equations (where n stands for the number of descriptors used), based on the highest R2 (squared correlation coefficient), R2cvOO (squared cross-validation “leave one-out, LOO” coefficient), R2cvMO (squared cross-validation “leave many-out up to 20% of the training set, LMO” coefficient), F (Fisher statistical significance criteria) values, and s2 (standard deviation). The QSAR up to 3-descriptor model describing the biological activity of the bio-active agents were generated (obeying the thumb rule of 4:1 which is the ratio between the data points and the number of QSAR descriptor).
(§9) Minimum (>0.1) bond order for atom C is an atomic type descriptor with the […]
(§10) why the higher descriptor value, the lower AChE inhibitory efficacy of the tested agent as […]
(§11) 2/SQRT(TMSA) (MOPAC PC) is a charge related descriptor with relatively high […]
(§12) . Compounds with high descriptor value predicted low AChE
(§13) 0.11715). HDCA2 (area weighed surface charge of hydrogen bonding donor atoms) can be calculated by equ. (1). 13
(§14) HDCA2 = D … .DtotH‒donor (1)
(§15) Where, standsSD for the solvent accessible surface area of H-bonding donor H atoms (selected by threshold charge), is the partialqD charge on H-bonding donor H atoms (selected by threshold charge) and is the totalStot solvent accessible molecular surface […]
(§16) Square root of surface area for atom C is also a charge related descriptor with […]
(§17) . For this reason, the higher descriptor value of […]

BChE [5] = target: T2, BChE; assay: 2D-QSAR (BMLR, CODESSA-Pro) model, BChE inhibitors; conditions: observed minus estimated IC50
From the text: as §2, §3, §4, §5, §6, §7, §8, §9, §10, §11, §12, §13, §14, §15, §16, §17
partial positively and negatively charged surface area can be calculated by equs. (2) and […]
PPSA3 = A … .. (2)A∈{δA>0}
PNSA3 = A … ..A∈{δA>0} (3)
Where, is the positively/negativelySA charged solvent accessible atomic surface area and qA is the atomic partial charge.
ZX Shadow/ZX rectangle is a geometrical descriptor with the highest coefficient […]
. The higher descriptor value of […]
compounds 8c and 8e, respectively). Relative shadow areas of a molecule can be determined by equ. (4). 13
Where, C is contour of the projection of the molecule on the plane defined by two principal axes of the molecule (k = XY, XZ or YZ plane), , , = X • ν –x or yρ –y or zS(k) […]
Maximum atomic state energy for atom O is an atomic type descriptor. […]

[6] = 10 min incubation at 25 °C, read at 405 nm, read-out: IC50 of AChE (μM) ± SD
[7] = log transformation of the observed IC50, read-out: Observed log(IC50, μM), AChE (converted)
[8] = 10 min incubation at 25 °C, read at 405 nm, read-out: IC50 of BChE (μM) ± SD
[9] = log transformation of the observed IC50, read-out: Observed log(IC50, μM), BChE (converted)

SMILES	IC50 (AChE [1]; [6])	IC50 (AChE [1]; [7])	SI(AChE/BChE) (AChE [1])	IC50 (BChE [2]; [8])	IC50 (BChE [2]; [9])	SI(BChE/AChE) (BChE [2])	IC50 [3]	Mortality rates or toxicological symptoms (mice)	Error (difference between observed and estimated property values), AChE BMLR-QSAR model (AChE [4])	Error (difference between observed and estimated property values), BChE BMLR-QSAR model (BChE [5])
COc1ccc2c(c1)C1(C(=O)N2)N(C)CC(c2ccc(Cl)cc2)C12CC(=O)N(c1ccccc1)C2=O (stereo not drawn) [Compound 8e, 4′-(4-Chlorophenyl)-5-methoxy-1′-methyl-1′′-phenyldispiro[indoline-3,2′-pyrrolidine-3′,3′′-pyrrolidine]-2,2′′,5′′-trione]	3.4 µM and 3.35 µM	3.35 µM	0.60	5.6 µM and 5.63 µM	5.63 µM	1.68	> 100 µM	None of the tested agents reveal any mortality rates or toxicological symptoms	0.10 µM	0.86 µM
CN1CC(c2ccccc2)C2(CC(=O)N(c3ccc(Cl)cc3)C2=O)C12C(=O)Nc1ccccc12 (stereo not drawn) [Compound 8h, 1′′-(4-Chlorophenyl)-1′-methyl-4′-phenyldispiro[indoline-3,2′-pyrrolidine-3′,3′′-pyrrolidine]-2,2′′,5′′-trione]	6.3 µM and 6.27 µM	6.27 µM	1.17	5.3 µM and 5.34 µM	5.34 µM	0.85	> 100 µM	None of the tested agents reveal any mortality rates or toxicological symptoms	-1.03 µM	-0.81 µM
COc1ccc(C2CN(C)C3(C(=O)Nc4ccc(OC)cc43)C23CC(=O)N(c2ccccc2)C3=O)cc1 (stereo not drawn) [Compound 8g, 5-Methoxy-4′-(4-methoxyphenyl)-1′-methyl-1′′-phenyldispiro[indoline-3,2′-pyrrolidine-3′,3′′-pyrrolidine]-2,2′′,5′′-trione]	3.2 µM and 3.15 µM	3.15 µM	0.66	4.7 µM and 4.74 µM	4.74 µM	1.50	> 100 µM	None of the tested agents reveal any mortality rates or toxicological symptoms	-1.78 µM	-0.65 µM
CN1CC(c2ccc(Cl)cc2)C2(CC(=O)N(c3ccccc3)C2=O)C12C(=O)Nc1ccc(Cl)cc12 (stereo not drawn) [Compound 8d, 5-Chloro-4′-(4-chlorophenyl)-1′-methyl-1′′-phenyldispiro[indoline-3,2′-pyrrolidine-3′,3′′-pyrrolidine]-2,2′′,5′′-trione]	24.3 ± 4.08 µM	24.3 µM	1.14	21.3 µM	21.3 µM	0.88	> 100 µM	–	13.92 µM	-5.91 µM
